# Columns and labels:
# mUCP2 promoter = assay: NHR-promoter luciferase screen, mUCP2 promoter; format: cell-based, mouse; conditions: for Luc. act., normalized to lacZ / Normalized Luc. act., normalized to control: mUCP2 promoter reporter, co-transfected HR, with or without its ligand; for Normalized Luc. act., normalized to control: relative to control; for luciferase activity normalized to lacZ activity and to a control, mUCP2: mUCP2 promoter-luciferase, CV-1 cells, NHR +/- ligand, control = 1.00
# Description: (§1) The use, feasibility, and reproducibility of the functional NHR-promoter screen in a 48-well format have been tested validated. Briefly, there were co-expressed 50 ng of each NHR/NHR homodimer or NHR/RXR heterodimer with 100 ng promoter/luciferase construct and 50 ng of LacZ (as a control for transfection efficiency) in CV-1 cells using Fugene HD (Roche) as a transfection reagent (alternatively or additionally, a CMV-YFP construct can be used as a transfection control). Each of the nuclear hormone receptors that were used in these experiments was cloned into a pcDNA3.1 vector and comprised a C-terminally linked V5H6 tag. Twenty-four hours after transfection, appropriate ligands were added, where applicable, (see Table 5 for various ligands and concentrations and after 48 hrs, samples were assayed for luciferase and LacZ activity. To measure for luciferase activity 15 ul of sample was added to 30 ul of luciferase buffer (20 mM tricine, 1.07 mM MgCarbonate, 2.67 mM MgSulfate, 0.1 mM Naz-EDTA, 5 mM DTT, 5 mM ATP, 0.15 mg/ml CoA, 0.5 mM Luciferin), mixed briefly, and run in a Perkin Elmer Victor 5 luminometer. Thus, the functional NHR-promoter screen was used to observe the transcriptional activity of 29 promoters from various physiological pathways including inflammation, lipid and sugar metabolism, cholesterol transport, xenobiotic metabolism, and circadian rhythm.
# (§2) The promoters that facilitate transcription of the indicated gene products that were tested using the protocols described herein are listed in the first row of the table. The nuclear hormone receptors and, where applicable, ligands that were assayed for their transcriptional effects on the promoters are listed in the first column of the table. The data represent the luciferase activity of each sample normalized to both the lacZ activity of that sample and to a control, e.g., no NHR or ligand, as customary in the art. As described previously, these normalizations allow the transcriptional activity of each reporter cell to be compared to other samples.
# (§3) Tables 7-40 show the transcriptional effects of the hormone receptors, and, where applicable, ligands (orphan receptors are screened without ligand), on each individual promoter. […] The control data of each table are shown in their last rows.
# MCP-1 promoter = assay: NHR-promoter luciferase screen, MCP-1 promoter; format: cell-based; conditions: for Normalized Luc. act., normalized to control / Luc. act., normalized to lacZ: MCP-1 promoter reporter; for Normalized Luc. act., normalized to control: HR without or with its ligand, relative to control; for Luc. act., normalized to lacZ: hormone receptor (HR) without or with its ligand; for mMCP-1 promoter reporter activity: transcription factor +/- ligand, control = 1.00
# Description: as §1, §2, §3
# hCYP3A4 promoter = assay: NHR-promoter luciferase screen, hCYP3A4 promoter; format: cell-based, human; conditions: for Luc. act., normalized to lacZ / Normalized Luc. act., normalized to control: CYP3A4 promoter, HR/ligand component; for hCYP3A4 promoter reporter activity: transcription factor +/- ligand, control = 1.00
# Description: Briefly, there were co-expressed 50 ng of each NHR/NHR homodimer or NHR/RXR heterodimer with 100 ng promoter/luciferase construct and 50 ng of LacZ (as a control for transfection efficiency) in CV-1 cells using Fugene HD (Roche) as a transfection reagent (alternatively or additionally, a CMV-YFP construct can be used as a transfection control). Each of the nuclear hormone receptors that were used in these experiments was cloned into a pcDNA3.1 vector and comprised a C-terminally linked V5H6 tag.
# as §2, §3
# hPPARg1 promoter = assay: NHR-promoter luciferase screen, hPPARg1 promoter; format: cell-based, human; conditions: for Luc. act., normalized to lacZ / Normalized Luc. act., normalized to control: PPARG1 promoter, hormone receptor with or without its ligand; for Normalized Luc. act., normalized to control: relative to control; for Results of assays of transcription factor (+/- ligand) with hPPARg1: Table 6d, luciferase activity relative to control (control = 1.00)
# Description: as §1, §2, §3
# hMyoD promoter = assay: NHR-promoter luciferase screen, hMyoD promoter; format: cell-based, human; conditions: for Luc. act., normalized to lacZ / Normalized Luc. act., normalized to control: MyoD promoter reporter, co-transfected HR, without or with its ligand; for Normalized Luc. act., normalized to control: relative to control; for luciferase activity normalized to lacZ activity and to a control, hMyoD: hMyoD promoter-luciferase, CV-1 cells, NHR +/- ligand, control = 1.00
# Description: as §1, §2, §3
# mPer1 promoter = assay: NHR-promoter luciferase screen, mPer1 promoter; format: cell-based, mouse; conditions: for Luc. act., normalized to lacZ / Normalized Luc. act., normalized to control: Per1 promoter reporter, co-transfected HR, with or without its ligand; for Normalized Luc. act., normalized to control: relative to control; for luciferase activity normalized to lacZ activity and to a control, mPer1: mPer1 promoter-luciferase, CV-1 cells, NHR +/- ligand, control = 1.00
# Description: as §1, §2, §3
Substance,"Luc. act., normalized to lacZ (mUCP2 promoter)","Normalized Luc. act., normalized to control (mUCP2 promoter)","luciferase activity normalized to lacZ activity and to a control, mUCP2 (mUCP2 promoter)","Normalized Luc. act., normalized to control (MCP-1 promoter)","Luc. act., normalized to lacZ (MCP-1 promoter)",mMCP-1 promoter reporter activity (MCP-1 promoter),"Luc. act., normalized to lacZ (hCYP3A4 promoter)","Normalized Luc. act., normalized to control (hCYP3A4 promoter)",hCYP3A4 promoter reporter activity (hCYP3A4 promoter),"Luc. act., normalized to lacZ (hPPARg1 promoter)","Normalized Luc. act., normalized to control (hPPARg1 promoter)",Results of assays of transcription factor (+/- ligand) with hPPARg1 (hPPARg1 promoter),"Luc. act., normalized to lacZ (hMyoD promoter)","Normalized Luc. act., normalized to control (hMyoD promoter)","luciferase activity normalized to lacZ activity and to a control, hMyoD (hMyoD promoter)","Luc. act., normalized to lacZ (mPer1 promoter)","Normalized Luc. act., normalized to control (mPer1 promoter)","luciferase activity normalized to lacZ activity and to a control, mPer1 (mPer1 promoter)"
"GR: Glucocorticoid Receptor (NR3C1), cDNA driver",59.4,0.5,0.54,0.2,23.9,0.22,2.0,0.5,0.45,37.2,0.5,0.54,26.4,0.4,0.42,384.1,2.7,2.67
"PNR: Photoreceptor-specific Nuclear Receptor (NR2E3), cDNA driver",104.4,1.0,0.95,1.1,116.3,1.09,2.2,0.5,0.50,45.9,0.7,0.67,37.1,0.6,0.59,93.4,0.6,0.65
"AR: Androsterone Receptor (NR3C4), cDNA driver",196.6,1.8,1.79,0.6,62.4,0.58,3.9,0.9,0.88,90.6,1.3,1.31,57.5,0.9,0.91,123.5,0.9,0.86
"VDR: Vitamin D Receptor (NR1I1), cDNA driver",136.2,1.2,1.24,2.0,215.8,2.02,5.1,1.2,1.15,38.1,0.6,0.55,52.8,0.8,0.83,97.1,0.7,0.67
"RXRa: Retinoic X Receptor α (NR2B1), cDNA driver",137.8,1.3,1.25,1.6,170.8,1.60,1.5,0.3,0.35,45.6,0.7,0.66,51.2,0.8,0.81,75.8,0.5,0.53
"NR4a1: NR4a1 (NR4A1; NUR77), nuclear hormone receptor cDNA driver",265.6,2.4,2.42,0.7,76.3,0.71,6.2,1.4,1.40,129.6,1.9,1.88,152.5,2.4,2.41,503.5,3.5,3.50
"ERR1: Estrogen Related Receptor α (NR3B1, ERRa), cDNA driver",121.6,1.1,1.11,2.2,237.3,2.22,4.5,1.0,1.01,59.1,0.9,0.86,69.1,1.1,1.09,197.1,1.4,1.37
"SF-1: Steroidogenic Factor 1 (NR5A1, SF1), cDNA driver",449.3,4.1,4.09,2.0,217.9,2.04,10.6,2.4,2.39,124.1,1.8,1.80,151.2,2.4,2.39,536.5,3.7,3.73
"PPARa: Peroxisome proliferator activated receptor α (NR1C1), cDNA driver",167.3,1.5,1.52,1.1,121.8,1.14,3.4,0.8,0.76,57.6,0.8,0.84,63.7,1.0,1.01,180.7,1.3,1.25
"PPARg: Peroxisome proliferator activated receptor γ (NR1C3), cDNA driver",171.6,1.6,1.56,1.4,146.1,1.36,4.7,1.1,1.06,75.7,1.1,1.10,74.5,1.2,1.18,154.5,1.1,1.07

# From patent publication US20110263454A1, “Methods of Identifying Functional Characteristics of Promoters, Transcription Modifying Proteins and Transcription Modulating Agents” (Salk Institute for Biological Studies, priority 2008, published 2011)
